We go through 24 compounds from US12091411B2, “IRAK degraders and uses thereof” (Kymera Therapeutics, Inc., priority 2022, dated 2024).

Like-named read-outs stand apart in the source and are kept apart here.

In the experiment the target is T1, IRAK4 (Homo sapiens, UniProt Q9NWZ3).
T1 construct: Degradation of IRAK4 in OCI-LY10 was quantitatively measured using Meso Scale Discovery technology; endogenous in cells; host or cells: OCI-LY10
T1 sequence (Q9NWZ3 1-460): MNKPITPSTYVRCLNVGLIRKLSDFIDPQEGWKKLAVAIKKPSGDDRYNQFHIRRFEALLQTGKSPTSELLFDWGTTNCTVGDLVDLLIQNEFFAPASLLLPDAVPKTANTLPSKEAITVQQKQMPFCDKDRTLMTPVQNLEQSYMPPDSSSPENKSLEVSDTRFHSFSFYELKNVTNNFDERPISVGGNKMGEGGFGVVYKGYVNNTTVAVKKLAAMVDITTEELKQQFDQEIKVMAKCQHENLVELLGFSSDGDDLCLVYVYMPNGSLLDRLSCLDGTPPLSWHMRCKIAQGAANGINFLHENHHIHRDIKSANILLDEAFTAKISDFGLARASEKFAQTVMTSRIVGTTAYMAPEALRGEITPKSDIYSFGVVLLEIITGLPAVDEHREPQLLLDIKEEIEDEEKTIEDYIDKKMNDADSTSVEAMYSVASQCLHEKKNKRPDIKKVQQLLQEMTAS
The experiment in a line: IRAK4 MSD Degradation in OCI-LY10. The class given is cell-based. The settings on record: OCI-LY10 cells. The method in brief: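 DC50, from a three-parameter logistic fit and reported as letter bins A (<0.01 μM), B, C, D (>0.2 μM or not tested), reflects IRAK4 loss measured by MSD electrochemiluminescence in OCI-LY10 lysates. Treatment: 8 doses, 1:3 steps, top 1 to 10 μM, 4 to 24 h, 37 °C.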

Where [1] appears, read: 4 hrs incubation, MSD, read-out: IRAK4 degradation in OCI-LY10 at 4 hrs: DC50.
The mark [2] stands for this setting: 24 hrs incubation, MSD, read-out: IRAK4 degradation in OCI-LY10 at 24 hrs: DC50.
Where [3] appears, read: 4 hrs incubation, read-out: IRAK4 degradation in OCI-LY10 at 4 hrs: DC50.
Setting [4] is: 24 hrs incubation, read-out: IRAK4 degradation in OCI-LY10 at 24 hrs: DC50.

As usually defined, the DC50 is the midpoint of the concentration-degradation curve. For `Cn1c(NC(=O)c2cccc(C(F)(F)F)n2)cc2cn([C@H]3CC[C@H](CN4CCC(c5cccc6c5n(C)c(=O)n6C5CCC(=O)NC5=O)C(F)(F)C4)CC3)nc2c1=O` (some centres unmarked) [I-771], the DC50 was more than 200 nM under setting [1] and more than 200 nM under setting [2]. Take `Cc1cccc(C(=O)Nc2cc3cn([C@H]4CC[C@H](CN5CCC(c6cccc7c6n(C)c(=O)n7C6CCC(=O)NC6=O)C(F)(F)C5)CC4)nc3c(=O)n2C)n1` (some centres unmarked) [I-772]: the DC50 is, setting by setting: under setting [1], more than 200 nM; under setting [2], more than 200 nM. For `COc1nc(NC(=O)c2cccc(C(F)(F)F)n2)cc2cn([C@H]3CC[C@H](CN4CC[C@@H](c5cccc6c5n(C)c(=O)n6C5CCC(=O)NC5=O)[C@H](F)C4)CC3)nc12` (some centres unmarked) [I-773], the DC50 is, setting by setting: under setting [1], more than 200 nM; under setting [2], more than 200 nM.

For `COc1nc(NC(=O)c2cccc(C(F)(F)F)n2)cc2cn([C@H]3CC[C@H](CN4CC[C@H](c5cccc6c5n(C)c(=O)n6C5CCC(=O)NC5=O)[C@@H](F)C4)CC3)nc12` (some centres unmarked) [I-774], the DC50 under setting [1] was more than 200 nM and the DC50 under setting [2] is more than 200 nM. Consider `COc1nc(NC(=O)c2cccc(C)n2)cc2cn([C@H]3CC[C@H](CN4CC[C@@H](c5cccc6c5n(C)c(=O)n6C5CCC(=O)NC5=O)[C@H](F)C4)CC3)nc12` (some centres unmarked) [I-775], for which the 50% degradation concentration (DC50) under setting [1] is more than 200 nM and the DC50 under setting [2] was more than 200 nM.

In the case of `Cn1c(NC(=O)c2cccc(C(F)(F)F)n2)cc2cn([C@H]3CC[C@H](CN4CC[C@@H](c5cccc6c5n(C)c(=O)n6C5CCC(=O)NC5=O)[C@H](F)C4)CC3)nc2c1=O` (some centres unmarked) [I-776], the 50% degradation concentration (DC50) reads like this: under setting [1], more than 200 nM; under setting [2], more than 200 nM. Turning to `Cn1c(=O)n(C2CCC(=O)NC2=O)c2cccc(N3CCC(C[C@H]4CC[C@H](n5cc6cc(NC(=O)c7cccc(C(F)(F)F)n7)ncc6n5)CC4)CC3)c21` (some centres unmarked) [I-777], the DC50 reads like this: under setting [1], more than 200 nM; under setting [2], more than 200 nM. In the case of `O=C1CCC(c2ccc(N3CC(CN4CCN(C[C@H]5CC[C@H](n6cc(NC(=O)c7cnn8ccc(N9C[C@H]%10C[C@@H]9CO%10)nc78)c(C(F)F)n6)CC5)CC4)C3)cc2Cl)C(=O)N1` (some centres unmarked) [I-778], the DC50 was more than 200 nM under setting [1] and more than 200 nM under setting [2]. With `O=C1CCC(c2ccc(N3CC(N4CCN([C@H]5CC[C@H](n6cc(NC(=O)c7cnn8ccc(N9C[C@H]%10C[C@@H]9CO%10)nc78)c(C(F)F)n6)CC5)CC4)C3)cc2Cl)C(=O)N1` (some centres unmarked) [I-779], the DC50 is more than 200 nM under setting [1] and more than 200 nM under setting [2]. Consider `O=C1CCC(c2ccc([C@H]3C[C@H](CO[C@H]4CCN(C[C@H]5CC[C@H](n6cc(NC(=O)c7cnn8ccc(N9C[C@H]%10C[C@@H]9CO%10)nc78)c(C(F)F)n6)CC5)C[C@H]4F)C3)cc2Cl)C(=O)N1` (some centres unmarked) [I-780], for which the 50% degradation concentration (DC50) runs as follows: under setting [1], more than 200 nM; under setting [2], more than 200 nM.

Consider `COc1cc2nn([C@H]3CC[C@H](CN4CC[C@@H](c5cccc6c5n(C)c(=O)n6C5CCC(=O)NC5=O)[C@H](F)C4)CC3)cc2cc1NC(=O)c1cccc(C(F)(F)F)n1` (some centres unmarked) [I-783], for which the DC50 is more than 200 nM under setting [1] and more than 200 nM under setting [2]. Take `COc1cc2nn([C@H]3CC[C@H](CN4CC[C@H](c5cccc6c5n(C)c(=O)n6C5CCC(=O)NC5=O)[C@@H](F)C4)CC3)cc2cc1NC(=O)c1cccc(C(F)(F)F)n1` (some centres unmarked) [I-784]: the DC50 reads like this: under setting [1], more than 200 nM; under setting [2], more than 200 nM. Regarding `Cn1c(=O)n(C2CCC(=O)NC2=O)c2cccc(N3CC(CCC4(F)CN(C[C@H]5CC[C@H](n6cc(NC(=O)c7cnn8ccc(N9C[C@H]%10C[C@@H]9CO%10)nc78)c(C(F)F)n6)CC5)C4)C3)c21` (some centres unmarked) [I-785], the DC50 by setting is: under setting [1], more than 200 nM; under setting [2], more than 200 nM. Regarding `Cn1c(=O)n(C2CCC(=O)NC2=O)c2cccc(N3CCC(OC[C@H]4CC[C@H](n5cc(NC(=O)c6cnn7cccnc67)c(C(F)F)n5)CC4)CC3)c21` (some centres unmarked) [I-786], the DC50 under setting [1] is more than 200 nM. Turning to `CN(CC1(F)CCN(c2cccc3c2n(C)c(=O)n3C2CCC(=O)NC2=O)CC1)C1CCC(n2cc3cc(NC(=O)c4cccc(C(F)(F)F)n4)ncc3n2)CC1` (centres unmarked) [I-787], the DC50 under setting [1] is more than 200 nM and the half-maximal degradation concentration (DC50) under setting [2] is more than 200 nM. On to `CN(CC1(F)CCN(c2cccc3c2n(C)c(=O)n3C2CCC(=O)NC2=O)CC1)C1CCC(n2cc3cc(NC(=O)c4cccc(C(F)(F)F)n4)ccc3n2)CC1` (centres unmarked) [I-788], for which the DC50 runs as follows: under setting [1], more than 200 nM; under setting [2], more than 200 nM. As for `Cn1c(=O)n(C2CCC(=O)NC2=O)c2cccc(N3CC(F)(CN(C)[C@H]4CC[C@H](n5cc6cc(NC(=O)c7cccc(C(F)(F)F)n7)ncc6n5)CC4)C3)c21` (some centres unmarked) [I-789], the DC50 is more than 200 nM under setting [1] and more than 200 nM under setting [2]. With `Cn1c(=O)n(C2CCC(=O)NC2=O)c2cccc(N3CC(F)(CN(C)[C@H]4CC[C@H](n5cc6cc(NC(=O)c7cccc(C(F)(F)F)n7)ccc6n5)CC4)C3)c21` (some centres unmarked) [I-790], the DC50 is more than 200 nM under setting [1] and more than 200 nM under setting [2]. `Cn1c(=O)n(C2CCC(=O)NC2=O)c2cccc(N3CCC(O[C@H]4CC[C@H](n5cc6cc(NC(=O)c7cccc(C(F)(F)F)n7)ncc6n5)CC4)CC3)c21` (some centres unmarked) [I-791]: the DC50 under setting [1] was more than 200 nM and the 50% degradation concentration (DC50) under setting [2] was more than 200 nM. As for `Cn1c(=O)n(C2CCC(=O)NC2=O)c2cccc(N3CCC(O[C@H]4CC[C@H](n5cc6cc(NC(=O)c7cccc(C(F)(F)F)n7)ccc6n5)CC4)CC3)c21` (some centres unmarked) [I-792], the DC50 under setting [1] was more than 200 nM and the DC50 under setting [2] was more than 200 nM. `Cn1c(=O)n(C2CCC(=O)NC2=O)c2cccc(N3CCC(O[C@H]4CC[C@H](n5cc6cc(NC(=O)c7cccc(C(F)(F)F)n7)ncc6n5)CC4)C3)c21` (some centres unmarked) [I-793]: the DC50 by setting is: under setting [1], more than 200 nM; under setting [2], more than 200 nM.

Regarding `Cn1c(=O)n(C2CCC(=O)NC2=O)c2cccc(N3CCC(O[C@H]4CC[C@H](n5cc6cc(NC(=O)c7cccc(C(F)(F)F)n7)ccc6n5)CC4)C3)c21` (some centres unmarked) [I-794], the DC50 is, setting by setting: under setting [3], more than 200 nM; under setting [4], more than 200 nM. On to `Cn1c(=O)n(C2CCC(=O)NC2=O)c2cccc(N3CC(O[C@H]4CC[C@H](n5cc6cc(NC(=O)c7cccc(C(F)(F)F)n7)ncc6n5)CC4)C3)c21` (some centres unmarked) [I-795], for which the DC50 reads like this: under setting [3], more than 200 nM; under setting [4], more than 200 nM.

On to `Cn1c(=O)n(C2CCC(=O)NC2=O)c2cccc(N3CC(O[C@H]4CC[C@H](n5cc6cc(NC(=O)c7cccc(C(F)(F)F)n7)ccc6n5)CC4)C3)c21` (some centres unmarked) [I-796], for which the 50% degradation concentration (DC50) was more than 200 nM under setting [3] and more than 200 nM under setting [4].
